Results: publication PMC10275055, “Preventing recurrence in Sonic Hedgehog Subgroup Medulloblastoma using the OLIG2 inhibitor CT-179” (Research Square, 2023)
Like-named read-outs stand apart in the source and are kept apart here.

Legend:
Med-813 MB cell line = assay: Cell viability, 7 days treatment, Med-813; format: cell-based; conditions: Homo sapiens, 168 h; Med-813, 7 days
Description: (§1) Cell proliferation was determined by a CellTiter 96® Non-Radioactive Cell Proliferation Assay (Promega) kit. Absorbance at 490 nm was measured on a Biotek PowerWave (Biotek, USA) plate scanner to obtain raw data. Average absorbance from triplicate wells were plotted against concentration using GraphPad Prism software v.7.0 (GraphPad software). At the indicated time points, cells were stained using FITC-conjugated Annexin V and Annexin V binding buffer (BD Pharmingen™) according to the manufacturer’s instructions. Annexin V or propidium iodide (PI)-positive cells were analyzed using a Fortessa 5 Flow Cytometer (Becton Dickinson) and data was analyzed using FlowJo® software (Tree Star).

R403 and R902 MBOs = assay: MB explant organoids (MBOs), cleaved caspase-3 staining; format: cell-based, human; conditions: 1 μM, 48 hours, CT-179 alone
Description: MB cell lines Daoy, UW228, and D283 were obtained from the American Type Culture Collection (ATCC) and cultured in RPMI supplemented with 1% Penicillin-Streptomycin, 1% GlutaMax-I CTS (Gibco) and 10% fetal bovine serum (FBS) (Gibco). MB002, D425 and PER547 primary cell lines were kindly provided by Dr. Tobias Schoep (Telethon Kids Institute, WA). Med-2312 PDX, Neo-113 PDX, Med-2112 PDX, Med-113 PDX and Med-813 PDX were filter tissues purchased from the Olson Laboratory (https://research.fhcrc.org/olson/en/btrl.html). Cell lines derived from the corresponding PDX tissues were labelled as primary cell lines. MB-R201 PDX is a MB PDX model generated and established in our laboratory. MB-R203 is a primary MB cell line. Primary cell lines were derived from MB patient specimens and cultured either in serum-free media grown as spheres or on matrigel. The serum-free media was prepared as previously described. Fresh surgically resected MB tissues were obtained from Queensland Children’s Tumor Bank. MB explant organoids (MBOs), R403 and R901, were generated by microdissection under a stereomicroscope (Zeiss) within a laminar flow biosafety cabinet. The MBOs were cultured in glioblastoma organoid (GBO) medium modified based on Jacob et al.. All cell lines were incubated at 37 °C under 5% CO2/95% humidified air atmosphere. […]

[1] = test system: SHH-MB in Gfap-Cre/SmoM2 (G-Smo) mice; assay: G-Smo GEM model of SHH-MB: tolerability, pharmacodynamics, survival; format: in vivo
Description: (§2) Medulloblastoma-bearing mice were maintained at UNC in accordance with UNC IACUC protocols 19–098 and 21–011 and at QIMR under protocol 1572 and 2324. Specimens were examined by a neuropathologist to verify tumor type and grade.
(§3) Post-natal P10 G-Smo mice were injected IP with CT-179 (80 mg/kg), or POx-Palbo (25 mg/kg, every day from P10 to P13), or combination (CT-179 + POx-Palbo, EOD from P14) or saline control solution and tumors were harvested after 6 or 24 hours. EdU (40 mg/kg) was administered IP 30 minutes before harvest. Tumors were dissociated using the Worthington Papain Dissociation System Kit, then fixed for 15 minutes on ice and washed with FACS Wash buffer (2% FBS in PBS). Fixed cells were stained with fluorophore markers for DNA (FX Cycle stain, Thermo Fisher Scientific), EdU (Click-it Edu Kit, Thermo Fisher Scientific), and phospho-RB content (phospho-RB^Ser807/811, Cell Signalling Technology) as previously described. Stained cells were resuspended in sheath fluid and ran on LSR II flow cytometer for 50000 events at the UNC Flow Cytometry core, using appropriate compensation controls and analyzed using FlowJo® software (Tree Star).
(§4) Brains including tumors from G-Smo mice were harvested, fixed in 4% paraformaldehyde for 48 hours, and embedded in paraffin at the UNC Centre for Gastrointestinal Biology and Disease Histology core. Sections were deparaffinised, and antigen retrieval was performed using a low-pH citric acid-based buffer. Staining was performed and stained slides were digitally scanned using the Leica Biosystems Aperio ImageScope software (12.3.3) by the UNC Translational Pathology Laboratory, as in prior studies. The primary antibodies used were anti-NeuN (Cell Signalling Technology) anti-OLIG2 (Cell Marque) and anti-SOX10 (Cell Signalling Technology) and anti-cleaved caspase-3 (Biocare).
(§5) In vitro experiments - all data represent the means ± standard deviation (SD) or standard error of the mean (SEM) as indicated. Where appropriate, two-tailed Student’s t-test or ANOVA were used to determine the probability of difference (*p < 0.05, ** p < 0.01, ***p < 0.001). In vivo experiments - the log-rank (Mantel-Cox) test was used to determine the survival significance of survival differences between treatment groups (*p < 0.05, ** p < 0.01, ***p < 0.001). Kaplan-Meier survival curves were generated using GraphPad Prism v. 7.0 software (GraphPad software).

[2] = as above; format: in vivo, mice; conditions: mouse, in vivo, ip, read-out: maximum tolerated dose (MTD)
Description: as §2, §3, §4, §5

UW228 MB cell line = assay: Cell viability, 7 days treatment, UW228; format: cell-based; conditions: Homo sapiens, 168 h; UW228, 7 days
Description: as §1

[3] = 80 mg/kg at P10, P12, P14 and P16, 24 hours after last dose

In the case of `Cc1cc(NCCCN(C)C)nc(NC(=O)Nc2ccc(Cl)c(Cl)c2)n1` [CT-179], the IC50 (Med-813 MB cell line) is reported as 965 nM, the “cell death, cleaved caspase-3 staining” value (R403 and R902 MBOs) is reported as “significant cell death” and the “p-OLIG2 in tumors, western blot” value [1, 3] is reported as “decreased p-OLIG2”. The “p-RB in tumors, western blot” value [1, 3] was “reduced p-RB”, the EFS versus control ([1]; IP 80 mg/kg EOD, 80 mg/kg every three days, or 100 mg/kg every three days, from P10) was “significantly improved EFS” and the “BLI signal in G-Smo Gli-luc mice” value ([1]; administered every three days) was “dose-dependent decrease in BLI signal”. It also gave an MTD ([2]; EOD) of 80 mg/kg, an MTD ([2]; every three days) of 100 mg/kg and an IC50 (UW228 MB cell line) of 285 nM.
